From patent US20100087481A1, “ORAL PHARMACEUTICAL FORMULATIONS FOR ANTIDIABETIC COMPOUNDS” (priority 2008, published 2010)
Where two headings read alike, the source gives them in different places.

Columns and labels:
[1] = in aqueous solvents and in most organic solvents; cited from earlier work
[2] = Chemical stability in selected oil-based media; format: physicochemical
Procedure: Studies were performed over a 2 week period at −20° C., 2-8° C., 40° C./75% RH and 60° C. At the elevated temperatures, chemical stability was monitored in the presence and absence of argon. Additionally, the pH stability of the drug was assessed over a seven week period at 40° C./75% RH, pH 2, 3, 5, 7, 9, and 10. […] In oil-based media containing neat Capmul® MCM or phosphatidylcholine (Phospholipon® 90G, Phosal® 53 MCT), drug recovery was >99%. […] The degradation observed in Capmul® MCM was inhibited by the addition of argon.

[3] = Physical stability in selected oil-based media (visual); format: physicochemical
Description: Physical stability of the drug was monitored visually.

[4] = Solubility in selected oil-based media; format: physicochemical; conditions: oil or lipid, read-out: Solubility, Concentration

Structure (SMILES): O=S(=O)(Nc1cc(Cl)c(Oc2cnc3ccccc3c2)c(Cl)c1)c1ccc(Cl)cc1Cl.O=S(=O)(O)c1ccccc1 [besylate salt of compound 101, 2,4-Dichloro-N-[3,5-dichloro-4-(quinolin-3-yloxy)-phenyl]-benzenesulfonamide benzenesulfonate salt]
- Solubility in words [1]: sparingly soluble
- Drug degradation ([2]; in Capmul® MCM at 60° C.): 7%
- Effect of argon on degradation ([2]; in Capmul® MCM, addition of argon): inhibited
- Drug degradation ([2]; in Phosal® 53 MCT at 60° C.): no drug degradation
- Degradation of the drug ([2]; in the presence of Labrasol®, Capmul® MCM and Phospholipon® 90G, 40° C., 2-week period): little or no degradation
- Physical stability (visual) ([3]; addition of 47% Capmul® MCM to oil-based media containing Phospholipon® 90G): inhibited solid formation
- Physical stability (visual) ([3]; high concentrations of Capmul® (>80%)): solidification and cloudiness
- Physical stability (visual) ([3]; warming then cooling compositions with more than 50% Phospholipon® 90G): formation of a fine suspension
- solubility ([4]; Capmul® MCM (oil-based medium), in Capmul ® MCM): 16600 µg/mL
- solubility ([4]; Capmul® PG8 (oil-based medium), in Capmul ® PG8): 2010 µg/mL
- solubility ([4]; Captex® 200 (oil-based medium), in Captex ® 200): 450 µg/mL
- solubility ([4]; Captex® 300EP (oil-based medium), in Captex ® 300EP): 280 µg/mL
- solubility ([4]; Captex® 355 (oil-based medium), in Captex ® 355): 520 µg/mL
- solubility ([4]; Crodamol® (oil-based medium), in Crodamol ®): 450 µg/mL
- solubility ([4]; Inwitor 742 (oil-based medium), in Inwitor 742): 7930 µg/mL
- solubility ([4]; Labrafac® CC (oil-based medium), in Labrafac ® CC): 290 µg/mL
- solubility ([4]; Labrafil® M 1944 CS (oil-based medium), in Labrafil ® M 1944 CS): 2340 µg/mL
- solubility ([4]; Labrasol® (oil-based medium), in Labrasol ®): 29200 µg/mL
- solubility ([4]; Maisine 35-I (oil-based medium), in Maisine 35-I): 1160 µg/mL
- solubility ([4]; Miglyol® 132 (oil-based medium), in Miglyol ® 132): 800 µg/mL
- solubility ([4]; Miglyol® 810N (oil-based medium), in Miglyol ® 810N): 380 µg/mL
- solubility ([4]; Miglyol® 812N (oil-based medium), in Miglyol ® 812N): 7930 µg/mL
- solubility ([4]; Peceol (oil-based medium), in Peceol): 3940 µg/mL
- solubility ([4]; Phosal® 53 MCT (oil-based medium), in Phosal ® 53 MCT): 43400 µg/mL
- solubility ([4]; in Corn Oil): 160 µg/mL
- solubility ([4]; in Super-refined soybean oil): 40 µg/mL
